# Data reported in patent US20030113409A1, “Tellurium containing nutrient formulation and process for enhancing the cumulative weight gain or feed efficacy in poultry” (priority 2001, published 2003).
# Experiments:
# [1] = intraruminal pellets selenium, dairy heifers; cited from earlier work
# [2] = Growth performance of three day old chicks fed diet with AS101 (body weight, feed intake, feed efficacy, liver weight, survival, histology); settings: for increase in BW over Group 1: versus standard diet without selenium
# Experimental: Each chick included in the study weighed exactly 80 g. via accurate electronic scale and each chick was marked. There were five different treatment groups, each group comprising ten chicks in four repetitions. The five groups of animals were tested as follows: Group 1 received a standard feeding diet without selenium; Group 2 received the standard feeding diet supplemented with 500 mg/metric ton of selenium; Group 3 received the same diet as Group 2 with the addition of AS101 at a concentration of 500 mg/metric ton; Group 4 received the same diet as Group 2 with the addition of AS101 at a concentration of 2,500 mg/metric ton; Group 5 received the same diet as Group 2 with the addition of AS101 at a concentration of 12,500 mg/ton. All the experiments were randomized and open. The results of each group represent the mean of 40 chicks. For growth period days 3-24, the performance of groups of three day old birds, fed AS101 concentrations of 500 mg/metric ton, 2,500 mg/metric ton or 12,500 mg/metric ton were compared to groups of control birds fed either a standard feeding diet without selenium or a standard feeding diet with an addition of […] selenium. Body weight (BW) was measured after 24 days. At the end of 24 days, the animals were examined for gross signs of toxicity. A gross visual examination was carried out. The liver of each chick was extracted and weighed.
# [3] = Phase I and II, cancer patients; cited from earlier work
# [4] = Treatment 2: selenium supplemented diet, no AS101
# [5] = Treatment 3: AS101 500 mg/metric ton
# [6] = Treatment 4: AS101 2,500 mg/metric ton
# [7] = Treatment 4: AS101 2,500 mg/metric ton, control = Treatment 2
# [8] = Treatment 5: AS101 12,500 mg/ton
# [9] = Treatment 5: AS101 12,500 mg/ton, control = Treatment 2
structure (smiles),measurement,setting,value
"[Se] [selenium, reference compound]",weight gains over control,[1],0.11 to 0.12 kg/day
same,increase in BW over Group 1,"[2]; Group 2, addition of 300 mg/ton of selenium",0.4%
same,FEED EFFICACY,[2]; [4],0.706 g/g
same,FEED INTAKE,[2]; [4],1405 g
same,"LIVER, % OF BW",[2]; [4],2.32%
same,BW-24D,"[2]; Treatment 2: standard diet supplemented with 500 mg/metric ton of selenium, no AS101",1072 g
"Cl[TeH]1(Cl)(Cl)OCCO1 [AS101, ammonium trichloro(dioxyethylene-O,O′)tellurate]",change in BW (significance),[2]; 12.5 g/ton AS101,significant increase in BW
same,BW increase,[2]; AS101 500 mg/ton added to mixture that includes selenium,1.7%
same,BW increase,"[2]; AS101 2,500 mg/ton added to mixture that includes selenium",2.3%
same,BW increase,"[2]; AS101 12,500 mg/ton added to mixture that includes selenium",5%
same,increase in BW over Group 1,"[2]; Group 5, highest level of tellurium",5.4%
same,FEED EFFICACY,[2]; [5],0.731 g/g
same,FEED INTAKE,[2]; [5],1382 g
same,"FE, % OF CONTROL","[2]; Treatment 3: AS101 500 mg/metric ton, control = Treatment 2",103.5%
same,"BW, % OF CONTROL","[2]; Treatment 3: AS101 500 mg/metric ton, control = Treatment 2 (selenium diet)",101.7%
same,BW-24D,"[2]; Treatment 3: standard diet + selenium 500 mg/metric ton + AS101 500 mg/metric ton, mean of 40 chicks",1090 g
same,FEED EFFICACY,[2]; [6],0.74 g/g
same,FEED INTAKE,[2]; [6],1375 g
same,"BW, % OF CONTROL",[2]; [7],102.3%
same,"FE, % OF CONTROL",[2]; [7],104.8%
same,BW-24D,"[2]; Treatment 4: standard diet + selenium + AS101 2,500 mg/metric ton, mean of 40 chicks",1097 g
same,FEED EFFICACY,[2]; [8],0.738 g/g
same,FEED INTAKE,[2]; [8],1417 g
same,"BW, % OF CONTROL",[2]; [9],105%
same,"FE, % OF CONTROL",[2]; [9],104.5%
same,BW-24D,"[2]; Treatment 5: standard diet + selenium + AS101 12,500 mg/ton, mean of 40 chicks",1126 g
same,survival rate,"[2]; all groups, no mortalities",100%
same,increase of growth rate of young chicks,"[2]; diet with at least 0.5 gm selenium per metric ton + 12.5 gm tellurium compound per metric ton, by day 21",up to 5%
same,food intake altered by feeding with AS101,[2]; in vivo,not altered
same,histological studies,[2]; in vivo,No pathological changes were observed
same,toxicity in clinical trials,[3],non-toxic
